Laboratory results from the NIST ThermoML archive (doi:10.1021/je060200b).

Experiment: molar heat capacity at constant pressure; xn = mol fraction of the nth substance listed
Conditions: 101 kPa, Liquid

BrCCCCCBr [1,5-dibromopentane] + CCCCCCC
molar heat capacity at constant pressure [J/K/mol]
Conditions | x1 = 0.1006 | x1 = 0.1994 | x1 = 0.3003 | x1 = 0.4008 | x1 = 0.5004 | x1 = 0.5999 | x1 = 0.6995 | x1 = 0.8002 | x1 = 0.899 | x1 = 1
303.15 K | – | – | – | – | – | 223.01 | 222.58 | 222.36 | 222.22 | 221.95
304.15 K | 225.49 | 224.9 | 224.44 | 224.26 | 223.94 | 223.37 | 222.93 | 222.44 | 222.36 | 222.17
305.15 K | 225.96 | 225.3 | 224.89 | 224.59 | 224.11 | 223.63 | 223.17 | 222.81 | 222.72 | 222.41
306.15 K | 226.32 | 225.5 | 225.09 | 224.8 | 224.39 | 223.91 | 223.45 | 223.05 | 222.99 | 222.63
307.15 K | 226.59 | 225.83 | 225.41 | 225.15 | 224.77 | 224.05 | 223.72 | 223.33 | 223.23 | 222.85
308.15 K | 227.03 | 226.31 | 225.84 | 225.38 | 225.09 | 224.36 | 223.89 | 223.55 | 223.34 | 223.09
309.15 K | 227.44 | 226.66 | 226.09 | 225.8 | 225.27 | 224.76 | 224.26 | 223.77 | 223.6 | 223.31
310.15 K | 227.81 | 226.87 | 226.5 | 226.12 | 225.7 | 224.95 | 224.52 | 224.04 | 223.81 | 223.56
311.15 K | 228.09 | 227.25 | 226.85 | 226.31 | 225.87 | 225.3 | 224.66 | 224.19 | 224.19 | 223.78
312.15 K | 228.59 | 227.7 | 227.09 | 226.6 | 226.24 | 225.58 | 225.06 | 224.56 | 224.44 | 224.03
313.15 K | 228.91 | 228.06 | 227.49 | 227.05 | 226.53 | 225.84 | 225.31 | 224.81 | 224.67 | 224.26
